From PubChem BioAssay AID274 (DTP/NCI, 2004)
Where “and” joins values, the source holds several entries; their conditions need not be identical. Equal entries are not always repeated. Toxic doses and inconclusive results are not listed.

System: BDF1 mice, Lewis lung carcinoma iv, survival T/C
Experiment: NCI In Vivo Anticancer Drug Screen. Data for tumor model Lewis Lung Carcinoma (intravenous) in B6D2F1 (BDF1) mice
Conditions: endpoint: median survival time, higher = longer survival
Procedure: The antitumor activity of compounds was measured in mice bearing transplantable tumors. Survival or tumor size were measured and the results are expressed as the measurement made in the treated group (T) divided by the measurement made in the vehicle treated control group (C). The tumor model used in this assay is Lewis Lung Carcinoma (intravenous) in B6D2F1 (BDF1) mice

[1] = dose: 6.25 mg/kg/injection, schedule: Q01DX009 (ip), vehicle: saline with Tween-80
[2] = dose: 12.5 mg/kg/injection, schedule: Q01DX009 (ip), vehicle: saline with Tween-80
[3] = dose: 2.0 mg/kg/injection, schedule: Q01DX009 (ip), vehicle: saline
[4] = dose: 12.5 mg/kg/injection, schedule: Q01DX009 (ip), vehicle: saline
[5] = dose: 50.0 mg/kg/injection, schedule: Q01DX009 (ip), vehicle: Klucel (hydroxypropylcellulose) (HPC)
[6] = dose: 100.0 mg/kg/injection, schedule: Q01DX009 (ip), vehicle: Klucel (hydroxypropylcellulose) (HPC)

CN=C(N)N/N=C(\c1ccccc1)c1ccc(Br)cc1
T/C (dose: 1.5 mg/kg/injection, schedule: Q01DX009 (ip), vehicle: saline with Tween-80): 95 % of control
T/C (dose: 3.0 mg/kg/injection, schedule: Q01DX009 (ip), vehicle: saline with Tween-80): 98 % of control
T/C [1]: 99 % of control
T/C [2]: 105 % of control

OCCN1CCN(CC/C=C2/c3ccccc3Sc3ccc(C(F)(F)F)cc32)CC1
T/C (dose: 1.56 mg/kg/injection, schedule: Q01DX009 (ip), vehicle: saline with Tween-80): 98 % of control
T/C (dose: 3.13 mg/kg/injection, schedule: Q01DX009 (ip), vehicle: saline with Tween-80): 97 % of control
T/C [2]: 97 % of control

COc1cccc2c1C(=O)c1c(O)c3c(c(O)c1C2=O)C[C@@](O)(C(=O)CO)C[C@@H]3OC1CC(N)C(O)C(C)O1 (stereo partly specified)
T/C (dose: 0.12 mg/kg/injection, schedule: Q01DX009 (ip), vehicle: saline): 97 % of control
T/C (dose: 0.25 mg/kg/injection, schedule: Q01DX009 (ip), vehicle: saline): 99 % of control and 110 % of control and 90 % of control
T/C (dose: 0.5 mg/kg/injection, schedule: Q01DX009 (ip), vehicle: saline): 99 % of control and 106 % of control and 113 % of control
T/C (dose: 0.5 mg/kg/injection, schedule: Q04DX003 (ip), vehicle: saline): 100 % of control
T/C (dose: 0.88 mg/kg/injection, schedule: Q01DX009 (ip), vehicle: saline): 107 % of control
T/C (dose: 1.0 mg/kg/injection, schedule: Q01DX009 (ip), vehicle: saline): 100 % of control and 111 % of control and 280 % of control
T/C (dose: 1.0 mg/kg/injection, schedule: Q04DX003 (ip), vehicle: saline): 92 % of control and 95 % of control
T/C (dose: 1.26 mg/kg/injection, schedule: Q01DX009 (ip), vehicle: saline): 121 % of control
T/C (dose: 1.92 mg/kg/injection, schedule: Q04DX003 (ip), vehicle: saline): 111 % of control
T/C (dose: 2.0 mg/kg/injection, schedule: Q01DX001 (ip), vehicle: saline): 112 % of control and 122 % of control
T/C [3]: 112 % of control and 115 % of control
T/C (dose: 2.0 mg/kg/injection, schedule: Q04DX003 (ip), vehicle: saline): 96 % of control and 110 % of control
T/C (dose: 2.57 mg/kg/injection, schedule: Q01DX009 (ip), vehicle: saline): 197 % of control
T/C (dose: 3.6 mg/kg/injection, schedule: Q01DX001 (im), vehicle: water): 113 % of control
T/C (dose: 3.9 mg/kg/injection, schedule: Q04DX003 (ip), vehicle: saline): 225 % of control
T/C (dose: 4.0 mg/kg/injection, schedule: Q01DX001 (ip), vehicle: saline): 114 % of control
T/C (dose: 4.0 mg/kg/injection, schedule: Q04DX003 (ip), vehicle: saline): 101 % of control and 105 % of control
T/C (dose: 4.8 mg/kg/injection, schedule: Q01DX001 (iv), vehicle: saline): 114 % of control and 115 % of control and 123 % of control
T/C (dose: 5.6 mg/kg/injection, schedule: Q04DX003 (ip), vehicle: saline): 253 % of control
T/C (dose: 6.0 mg/kg/injection, schedule: Q01DX001 (im), vehicle: water): 101 % of control
T/C (dose: 6.86 mg/kg/injection, schedule: Q01DX001 (iv), vehicle: saline): 151 % of control
T/C (dose: 8.0 mg/kg/injection, schedule: Q01DX001 (ip), vehicle: saline): 154 % of control and 169 % of control
T/C (dose: 8.0 mg/kg/injection, schedule: Q04DX003 (ip), vehicle: saline): 105 % of control
T/C (dose: 9.8 mg/kg/injection, schedule: Q01DX001 (iv), vehicle: saline): 195 % of control
T/C (dose: 14.0 mg/kg/injection, schedule: Q01DX001 (iv), vehicle: saline): 175 % of control and 333 % of control

COC(=O)CC(N)C(=O)O (stereo unspecified)
T/C [4]: 115 % of control
T/C (dose: 50.0 mg/kg/injection, schedule: Q01DX009 (ip), vehicle: saline): 95 % of control
T/C (dose: 100.0 mg/kg/injection, schedule: Q01DX009 (ip), vehicle: saline): 109 % of control
T/C (dose: 200.0 mg/kg/injection, schedule: Q01DX009 (ip), vehicle: saline): 100 % of control

CC(C)NNC(=O)c1ccncc1
T/C (dose: 19.4 mg/kg/injection, schedule: Q01DX007 (ip), vehicle: Klucel (hydroxypropylcellulose) (HPC)): 95 % of control
T/C (dose: 32.4 mg/kg/injection, schedule: Q01DX007 (ip), vehicle: Klucel (hydroxypropylcellulose) (HPC)): 91 % of control
T/C (dose: 54.0 mg/kg/injection, schedule: Q01DX007 (ip), vehicle: Klucel (hydroxypropylcellulose) (HPC)): 95 % of control
T/C (dose: 90.0 mg/kg/injection, schedule: Q01DX007 (ip), vehicle: Klucel (hydroxypropylcellulose) (HPC)): 96 % of control
T/C (dose: 150.0 mg/kg/injection, schedule: Q01DX007 (ip), vehicle: Klucel (hydroxypropylcellulose) (HPC)): 91 % of control

O=Cc1ccc(C=O)c(Cl)c1
T/C [5]: 101 % of control
T/C [6]: 100 % of control
T/C (dose: 200.0 mg/kg/injection, schedule: Q01DX009 (ip), vehicle: Klucel (hydroxypropylcellulose) (HPC)): 105 % of control
T/C (dose: 400.0 mg/kg/injection, schedule: Q01DX009 (ip), vehicle: Klucel (hydroxypropylcellulose) (HPC)): 95 % of control

COc1cc2cc[n+](C)c(Cc3ccccc3)c2cc1OC
T/C (dose: 3.12 mg/kg/injection, schedule: Q01DX009 (ip), vehicle: saline with Tween-80): 285 % of control
T/C (dose: 3.12 mg/kg/injection, schedule: Q01DX009 (ip), vehicle: saline): 106 % of control
T/C [1]: 91 % of control
T/C (dose: 6.25 mg/kg/injection, schedule: Q01DX009 (ip), vehicle: saline): 108 % of control
T/C [2]: 161 % of control
T/C [4]: 116 % of control
T/C (dose: 25.0 mg/kg/injection, schedule: Q01DX009 (ip), vehicle: saline with Tween-80): 95 % of control
T/C (dose: 25.0 mg/kg/injection, schedule: Q01DX009 (ip), vehicle: saline): 120 % of control

O=C(Nc1ccc(Cl)c(Cl)c1)Nc1c(Oc2ccc(Cl)c(Cl)c2)ccc(Cl)c1S(=O)(=O)O
T/C (dose: 3.12 mg/kg/injection, schedule: Q01DX009 (ip), vehicle: Klucel (hydroxypropylcellulose) (HPC)): 113 % of control
T/C (dose: 6.25 mg/kg/injection, schedule: Q01DX009 (ip), vehicle: Klucel (hydroxypropylcellulose) (HPC)): 104 % of control
T/C (dose: 25.0 mg/kg/injection, schedule: Q01DX009 (ip), vehicle: Klucel (hydroxypropylcellulose) (HPC)): 109 % of control
T/C [5]: 105 % of control
T/C [6]: 100 % of control

COc1cccc2c1C(=O)c1c(O)c3c(c(O)c1C2=O)C[C@@](O)(/C(C)=N\O)C[C@@H]3OC1CC(N)C(O)C(C)O1 (stereo partly specified)
T/C (dose: 3.13 mg/kg/injection, schedule: Q01DX009 (ip), vehicle: water): 108 % of control
T/C (dose: 6.25 mg/kg/injection, schedule: Q01DX009 (ip), vehicle: water): 99 % of control
T/C (dose: 12.5 mg/kg/injection, schedule: Q01DX009 (ip), vehicle: water): 114 % of control

CC(=O)OC/C=C(C)/C=C/C=C(C)/C=C/C1=C(C)CCCC1(C)C
T/C (dose: 6.25 mg/kg/injection, schedule: Q01DX005 (ip), vehicle: saline with Tween-80): 115 % of control
T/C (dose: 12.5 mg/kg/injection, schedule: Q01DX005 (ip), vehicle: saline with Tween-80): 91 % of control
T/C (dose: 25.0 mg/kg/injection, schedule: Q01DX005 (ip), vehicle: saline with Tween-80): 97 % of control
T/C (dose: 50.0 mg/kg/injection, schedule: Q01DX005 (ip), vehicle: saline with Tween-80): 97 % of control
T/C (dose: 100.0 mg/kg/injection, schedule: Q01DX005 (ip), vehicle: saline with Tween-80): 98 % of control
T/C (dose: 200.0 mg/kg/injection, schedule: Q01DX005 (ip), vehicle: saline with Tween-80): 104 % of control

NC(=O)c1csc(C2OC(CO)C(O)C2O)n1 (stereo unspecified)
T/C (dose: 25.0 mg/kg/injection, schedule: Q01DX009 (ip), vehicle: water): 326 % of control
T/C (dose: 50.0 mg/kg/injection, schedule: Q01DX009 (ip), vehicle: water): 326 % of control
T/C (dose: 100.0 mg/kg/injection, schedule: Q01DX009 (ip), vehicle: water): 326 % of control
T/C (dose: 200.0 mg/kg/injection, schedule: Q01DX009 (ip), vehicle: water): 326 % of control
T/C (dose: 330.0 mg/kg/injection, schedule: Q01DX009 (ip), vehicle: water): 452 % of control
T/C (dose: 400.0 mg/kg/injection, schedule: Q01DX009 (ip), vehicle: water): 326 % of control
T/C (dose: 500.0 mg/kg/injection, schedule: Q01DX009 (ip), vehicle: water): 452 % of control
T/C (dose: 750.0 mg/kg/injection, schedule: Q01DX009 (ip), vehicle: water): 452 % of control

CC(=O)C(O)N1C(=O)C=CC1=O (stereo unspecified)
T/C (dose: 0.62 mg/kg/injection, schedule: Q01DX009 (ip), vehicle: saline): 115 % of control
T/C (dose: 0.63 mg/kg/injection, schedule: Q01DX009 (ip), vehicle: saline): 95 % of control

CC[C@H]1CN2CCc3cc(OC)c(OC)cc3[C@@H]2C[C@@H]1C[C@H]1NCCc2cc(O)c(OC)cc21
T/C [3]: 109 % of control
T/C (dose: 4.0 mg/kg/injection, schedule: Q01DX009 (ip), vehicle: saline): 100 % of control
T/C (dose: 8.0 mg/kg/injection, schedule: Q01DX009 (ip), vehicle: saline): 116 % of control
T/C (dose: 16.0 mg/kg/injection, schedule: Q01DX009 (ip), vehicle: saline): 116 % of control
